Assay results taken from ChEMBL document CHEMBL4732046, “A red-light-activated sulfonamide porphycene for highly efficient photodynamic therapy against hypoxic tumor” (Eur J Med Chem, 2021).

Experiments:
HeLa [1] = assay: Photocytotoxicity against human HeLa cells assessed as reduction in cell viability irradiated with 640 +/- 15 nm red LED for 4 hrs measured after 24 hrs by MTT assay; type: functional, cell-based; details: light or radiation study
KYSE-70 cell line [2] = assay: Photocytotoxicity against human KYSE-70 cells assessed as reduction in cell viability irradiated with 640 +/- 15 nm red LED for 4 hrs measured after 24 hrs by MTT assay; type: functional, cell-based; details: KYSE-70, light or radiation study
A-375 [3] = assay: Photocytotoxicity against human A-375 cells assessed as reduction in cell viability irradiated with 640 +/- 15 nm red LED for 4 hrs measured after 24 hrs by MTT assay; type: functional, cell-based; details: A-375, light or radiation study
B16 [4] = assay: Photocytotoxicity against mouse B16 cells assessed as reduction in cell viability irradiated with 640 +/- 15 nm red LED for 4 hrs measured after 24 hrs by MTT assay; type: functional, cell-based; details: B16, light or radiation study
HeLa [5] = assay: Photocytotoxicity against human HeLa cells assessed as reduction in cell viability irradiated with 640 +/- 15 nm red LED for 4 hrs measured after 24 hrs under hypoxic condition by MTT assay; type: functional, cell-based; details: light or radiation study
KYSE-70 cell line [6] = assay: Photocytotoxicity against human KYSE-70 cells assessed as reduction in cell viability irradiated with 640 +/- 15 nm red LED for 4 hrs measured after 24 hrs under hypoxic condition by MTT assay; type: functional, cell-based; details: KYSE-70, light or radiation study
A-375 [7] = assay: Photocytotoxicity against human A-375 cells assessed as reduction in cell viability irradiated with 640 +/- 15 nm red LED for 4 hrs measured after 24 hrs under hypoxic condition by MTT assay; type: functional, cell-based; details: A-375, light or radiation study
B16 [8] = assay: Photocytotoxicity against mouse B16 cells assessed as reduction in cell viability irradiated with 640 +/- 15 nm red LED for 4 hrs measured after 24 hrs under hypoxic condition by MTT assay; type: functional, cell-based; details: B16, light or radiation study
HeLa [9] = assay: Cytotoxicity against human HeLa cells assessed as cell viability in dark measured after 24 hrs by MTT assay; type: functional, cell-based
KYSE-70 cell line [10] = assay: Cytotoxicity against human KYSE-70 cells assessed as cell viability in dark measured after 24 hrs by MTT assay; type: functional, cell-based; details: KYSE-70, 24 h
A-375 [11] = assay: Cytotoxicity against human A-375 cells assessed as cell viability in dark measured after 24 hrs by MTT assay; type: functional, cell-based; details: A-375, 24 h
B16 [12] = assay: Cytotoxicity against mouse B16 cells assessed as cell viability in dark measured after 24 hrs by MTT assay; type: functional, cell-based; details: B16, 24 h
HeLa [13] = assay: Photo-therapeutic index, ratio of LD50 for photocytotoxicity against human HeLa cells assessed as reduction in cell viability irradiated with 640 +/- 15 nm red LED for 4 hrs measured after 24 hrs by MTT assay to LD50 for cytotoxicity against human HeLa cells assessed as cell viability in dark measured after 24 hrs by MTT assay; type: functional

| Structure (SMILES) | DC50 (HeLa [1]) | DC50 (KYSE-70 cell line [2]) | DC50 (A-375 [3]) | DC50 (B16 [4]) | DC50 (HeLa [5]) | DC50 (KYSE-70 cell line [6]) | DC50 (A-375 [7]) | DC50 (B16 [8]) | DC50 (HeLa [9]) | DC50 (KYSE-70 cell line [10]) | DC50 (A-375 [11]) | DC50 (B16 [12]) | Ratio (HeLa [13]) |
| --- | --- | --- | --- | --- | --- | --- | --- | --- | --- | --- | --- | --- | --- |
| CC/N=c1/cc2sc3cc(N(CC)CC)ccc3nc-2c2ccccc12 | 95 nM | 305 nM | 507 nM | 930 nM | 1030 nM | 809 nM | 1300 nM | 1890 nM | 7000 nM | 4000 nM | 1000 nM | 11000 nM | – |
| CC(C)(C)C1=Cc2nc1ccc1[nH]c(cc1C(C)(C)C)c1nc(ccc3[nH]c2cc3S(=O)(=O)NCCOCCO)C(S(=O)(=O)NCCOCCO)=C1 | 69 nM | 5 nM | 23 nM | 168 nM | 329 nM | 24 nM | 57 nM | 370 nM | 24000 nM | 28000 nM | 28000 nM | 57000 nM | 73 |
